Where a name gives a salt, the structure may show the parent alone.
system: Acinetobacter baumannii ATCC 17961; experiment: Antimicrobial susceptibility testing: 90% growth inhibitory concentration (IC90) determination; format: cell-based; conditions: ATCC17961, Acinetobacter baumannii ATCC 17961, Iso-Sensitest broth, read-out: ATCC 17961 IC90
Summary of the method: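 Broth microdilution in Iso-Sensitest medium, twofold series (e.g. 50 to 0.097 μM final), ~5×10^5 CFU/ml inoculum, 35±2 °C. OD600 read every 20 min over 16 h. IC90 derived from growth inhibition during logarithmic phase.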

Compound	IC90 [nM]
Cn1c(-c2cn(CCF)nc2C(F)(F)F)cnc1C(=O)Nc1ccc(C(=O)N2CCN(C3=NC(CN)CO3)CC2)c(Cl)c1 (centres unmarked) [Example 145, N-[4-[4-[4-(aminomethyl)-4,5-dihydro-1,3-oxazol-2-yl]piperazine-1-carbonyl]-3-chlorophenyl]-5-[1-(2-fluoroethyl)-3-(trifluoromethyl)pyrazol-4-yl]-1-methylimidazole-2-carboxamide;formic acid]	928
Cn1c(-c2cn(CC(F)(F)F)nc2C(F)(F)F)cnc1C(=O)Nc1ccc(C(=O)N2CCN(C3=NC(CN)CO3)CC2)c(Cl)c1 (centres unmarked) [Example 148, N-[4-[4-[4-(aminomethyl)-4,5-dihydro-1,3-oxazol-2-yl]piperazine-1-carbonyl]-3-chlorophenyl]-1-methyl-5-[1-(2,2,2-trifluoroethyl)-3-(trifluoromethyl)pyrazol-4-yl]imidazole-2-carboxamide]	524
CCc1cc(NC(=O)c2ncc(-c3cn(CC(F)F)nc3C(F)(F)F)n2C)ccc1C(=O)N1CCN(C(=O)C2CCN(C)CC2)CC1 [Example 152, 5-[1-(2,2-difluoroethyl)-3-(trifluoromethyl)pyrazol-4-yl]-N-[3-ethyl-4-[4-(1-methylpiperidine-4-carbonyl)piperazine-1-carbonyl]phenyl]-1-methylimidazole-2-carboxamide]	1170
CCc1cc(NC(=O)c2ncc(-c3cn(CC(F)F)nc3C(F)(F)F)n2C)ccc1C(=O)N1CCN(C(=O)C2CCNCC2)CC1 [Example 154, 5-[1-(2,2-difluoroethyl)-3-(trifluoromethyl)pyrazol-4-yl]-N-[3-ethyl-4-[4-(piperidine-4-carbonyl)piperazine-1-carbonyl]phenyl]-1-methylimidazole-2-carboxamide;formic acid]	955
CCc1cc(NC(=O)c2ncc(-c3cn(CC(F)F)nc3C(F)(F)F)n2C)ccc1C(=O)N1CCN(C(=O)C2(O)CCNCC2)CC1 [Example 155, 5-[1-(2,2-difluoroethyl)-3-(trifluoromethyl)pyrazol-4-yl]-N-[3-ethyl-4-[4-(4-hydroxypiperidine-4-carbonyl)piperazine-1-carbonyl]phenyl]-1-methylimidazole-2-carboxamide;formic acid]	1140
CCc1cc(NC(=O)c2ncc(-c3cn(CC(F)F)nc3C(F)(F)F)n2C)ccc1C(=O)N1CCN(C(=O)[C@@H]2CCNC2)CC1 [Example 156, 5-[1-(2,2-difluoroethyl)-3-(trifluoromethyl)pyrazol-4-yl]-N-[3-ethyl-4-[4-[(3R)-pyrrolidine-3-carbonyl]piperazine-1-carbonyl]phenyl]-1-methylimidazole-2-carboxamide;formic acid]	758
CCc1cc(NC(=O)c2ncc(-c3cn(Cc4cccnc4)nc3C(F)(F)F)n2C)ccc1C(=O)N1CCN(C(=O)C2CCN(C)CC2)CC1 [Example 158, N-[3-ethyl-4-[4-(1-methylpiperidine-4-carbonyl)piperazine-1-carbonyl]phenyl]-1-methyl-5-[1-(pyridin-3-ylmethyl)-3-(trifluoromethyl)pyrazol-4-yl]imidazole-2-carboxamide;formic acid]	1200
CCc1cc(NC(=O)c2ncc(-c3cn(Cc4cccnc4)nc3C(F)(F)F)n2C)ccc1C(=O)N1CCN(C(=O)C2CCNCC2)CC1 [Example 159, N-[3-ethyl-4-[4-(piperidine-4-carbonyl)piperazine-1-carbonyl]phenyl]-1-methyl-5-[1-(pyridin-3-ylmethyl)-3-(trifluoromethyl)pyrazol-4-yl]imidazole-2-carboxamide;formic acid]	1160
CCc1cc(NC(=O)c2ncc(-c3cn(Cc4cccnc4)nc3C(F)(F)F)n2C)ccc1C(=O)N1CCN(C(=O)C2(O)CCNCC2)CC1 [Example 160, N-[3-ethyl-4-[4-(4-hydroxypiperidine-4-carbonyl)piperazine-1-carbonyl]phenyl]-1-methyl-5-[1-(pyridin-3-ylmethyl)-3-(trifluoromethyl)pyrazol-4-yl]imidazole-2-carboxamide;formic acid]	1500
CCc1cc(NC(=O)c2ncc(-c3cn(Cc4cccnc4)nc3C(F)(F)F)n2C)ccc1C(=O)N1CCN(C(=O)[C@@H]2CCNC2)CC1 [Example 161, N-[3-ethyl-4-[4-[(3R)-pyrrolidine-3-carbonyl]piperazine-1-carbonyl]phenyl]-1-methyl-5-[1-(pyridin-3-ylmethyl)-3-(trifluoromethyl)pyrazol-4-yl]imidazole-2-carboxamide;formic acid]	1280
CCc1cc(NC(=O)c2ncc(-c3cn(Cc4cccnc4)nc3C(F)(F)F)n2C)ccc1C(=O)N1CCN(C(=O)NCC2(O)CNC2)CC1 [Example 162, 4-[2-ethyl-4-[[1-methyl-5-[1-(pyridin-3-ylmethyl)-3-(trifluoromethyl)pyrazol-4-yl]imidazole-2-carbonyl]amino]benzoyl]-N-[(3-hydroxyazetidin-3-yl)methyl]piperazine-1-carboxamide;formic acid]	1470

Second part, the compound after the results:

IC90 [nM]	Compound
343	Cn1c(-c2cn(CC(F)F)nc2C(F)(F)F)cnc1C(=O)Nc1ccc(C(=O)N2CCN(C(=O)N[C@H]3CCNC3)CC2)c(Cl)c1 [Example 142, 4-[2-chloro-4-[[5-[1-(2,2-difluoroethyl)-3-(trifluoromethyl)pyrazol-4-yl]-1-methylimidazole-2-carbonyl]amino]benzoyl]-N-[(3S)-pyrrolidin-3-yl]piperazine-1-carboxamide;formic acid]
426	Cn1c(-c2cn(CC#N)nc2C(F)(F)F)cnc1C(=O)Nc1ccc(C(=O)N2CCN(C(=O)N[C@H]3CCNC3)CC2)c(Cl)c1 [Example 143, 4-[2-chloro-4-[[5-[1-(cyanomethyl)-3-(trifluoromethyl)pyrazol-4-yl]-1-methylimidazole-2-carbonyl]amino]benzoyl]-N-[(3S)-pyrrolidin-3-yl]piperazine-1-carboxamide;formic acid]
621	Cn1c(-c2cn(CCF)nc2C(F)(F)F)cnc1C(=O)Nc1ccc(C(=O)N2CCN(C(=O)NC3CNC3)CC2)c(Cl)c1 [Example 144, N-(azetidin-3-yl)-4-[2-chloro-4-[[5-[1-(2-fluoroethyl)-3-(trifluoromethyl)pyrazol-4-yl]-1-methylimidazole-2-carbonyl]amino]benzoyl]piperazine-1-carboxamide;formic acid]
434	Cn1c(-c2cn(CC(F)F)nc2C(F)(F)F)cnc1C(=O)Nc1ccc(C(=O)N2CCN(C(=O)NC3CNC3)CC2)c(Cl)c1 [Example 146, N-(azetidin-3-yl)-4-[2-chloro-4-[[5-[1-(2,2-difluoroethyl)-3-(trifluoromethyl)pyrazol-4-yl]-1-methylimidazole-2-carbonyl]amino]benzoyl]piperazine-1-carboxamide;formic acid]
289	C=CCn1cc(-c2cnc(C(=O)Nc3ccc(C(=O)N4CCN(C(=O)NC5CNC5)CC4)c(Cl)c3)n2C)c(C(F)(F)F)n1 [Example 147, N-(azetidin-3-yl)-4-[2-chloro-4-[[1-methyl-5-[1-prop-2-enyl-3-(trifluoromethyl)pyrazol-4-yl]imidazole-2-carbonyl]amino]benzoyl]piperazine-1-carboxamide]
550	Cn1c(-c2cn(CC(F)(F)F)nc2C(F)(F)F)cnc1C(=O)Nc1ccc(C(=O)N2CCN(C(=O)NC3CNC3)CC2)c(Cl)c1 [Example 149, N-(azetidin-3-yl)-4-[2-chloro-4-[[1-methyl-5-[1-(2,2,2-trifluoroethyl)-3-(trifluoromethyl)pyrazol-4-yl]imidazole-2-carbonyl]amino]benzoyl]piperazine-1-carboxamide]
324	Cn1c(-c2cn(C3CCC3)nc2C(F)(F)F)cnc1C(=O)Nc1ccc(C(=O)N2CCN(C(=O)NC3CNC3)CC2)c(Cl)c1 [Example 150, N-(azetidin-3-yl)-4-[2-chloro-4-[[5-[1-cyclobutyl-3-(trifluoromethyl)pyrazol-4-yl]-1-methylimidazole-2-carbonyl]amino]benzoyl]piperazine-1-carboxamide]
475	Cn1c(-c2cn(CC#N)nc2C(F)(F)F)cnc1C(=O)Nc1ccc(C(=O)N2CCN(C(=O)NC3CNC3)CC2)c(Cl)c1 [Example 151]
1000	CCc1cc(NC(=O)c2ncc(-c3cn(CC(F)F)nc3C(F)(F)F)n2C)ccc1C(=O)N1CCN(C(=O)C2CNC2)CC1 [Example 153, N-[4-[4-(azetidine-3-carbonyl)piperazine-1-carbonyl]-3-ethylphenyl]-5-[1-(2,2-difluoroethyl)-3-(trifluoromethyl)pyrazol-4-yl]-1-methylimidazole-2-carboxamide;formic acid]
1000	CCc1cc(NC(=O)c2ncc(-c3cn(CC(F)F)nc3C(F)(F)F)n2C)ccc1C(=O)N1CCN(C(=O)NCC2(O)CNC2)CC1 [Example 157, 4-[4-[[5-[1-(2,2-difluoroethyl)-3-(trifluoromethyl)pyrazol-4-yl]-1-methylimidazole-2-carbonyl]amino]-2-ethylbenzoyl]-N-[(3-hydroxyazetidin-3-yl)methyl]piperazine-1-carboxamide;formic acid]
347	CCn1cc(-c2cnc(C(=O)Nc3ccc(C(=O)N4CCN(C(=O)N[C@H]5C[C@@H](N)C5)CC4)c(Cl)c3)n2C)c(C(F)(F)F)n1 [Example 168, rac-N-((1s,3s)-3-aminocyclobutyl)-4-(2-chloro-4-(5-(1-ethyl-3-(trifluoromethyl)-1H-pyrazol-4-yl)-1-methyl-1H-imidazole-2-carboxamido)benzoyl)piperazine-1-carboxamide Hydrochloride]

same assay, conditions: Acinetobacter baumannii, ATCC17961, read-out: ATCC 17961 IC90, Acinetobacter baumannii ATCC 17961, Iso-Sensitest broth

Compound	IC90 [nM]
Cn1c(-c2cn(CC3CC3)nc2C(F)(F)F)cnc1C(=O)Nc1ccc(C(=O)N2CCN(C(=O)N[C@H]3C[C@@H](N)C3)CC2)c(Cl)c1 [Example 169, rac-N-((1s,3s)-3-aminocyclobutyl)-4-(2-chloro-4-(5-(1-(cyclopropylmethyl)-3-(trifluoromethyl)-1H-pyrazol-4-yl)-1-methyl-1H-imidazole-2-carboxamido)benzoyl)piperazine-1-carboxamide Hydrochloride]	245

From patent US11390604B2 (Hoffmann-La Roche Inc., priority 2019, dated 2022)
